Measurements from ChEMBL document CHEMBL1129486, “(2S,4S)-2-amino-4-(4,4-diphenylbut-1-yl)- pentane-1,5-dioic acid: a potent and selective antagonist for metabotropic glutamate receptors negatively linked to adenylate cyclase” (J Med Chem, 1996).

Assays:
[1] = Compound was evaluated for its ability to reverse ACPD-induced inhibition of forskolin-stimulated cAMP formation in the human mGluR2 expressing non-neuronal cells.; format: functional
[2] = molecular target: Metabotropic glutamate receptor; assay: Compound was tested for its ability to displace metabotropic glutamate binding to rat brain membranes using [3H]glutamate radioligand.; format: tissue-based, Membrane

IC50 [1] [µM] | IC50 [2] [µM] | Compound
171 | 55.3 | N[C@@H](C[C@@H](CCCC(c1ccccc1)c1ccccc1)C(=O)O)C(=O)O
 | 4.2 | N[C@@H](CC(CCCC(c1ccccc1)c1ccccc1)C(=O)O)C(=O)O (stereo not given in full)
18.1 | 4.1 | N[C@@H](C[C@H](CCCC(c1ccccc1)c1ccccc1)C(=O)O)C(=O)O
